In EPA's ToxRefDB 2:

Experiments:
[1] = tested on: rat; conditions: Combined chronic toxicity/carcinogenicity, sprague dawley, Oral, Feed, dose end: 24 month, group: systemic
[2] = tested on: mouse; conditions: Carcinogenicity, cd1, Oral, Feed, dose end: 18 month, group: systemic
[3] = tested on: rat; conditions: Subchronic oral toxicity in rodents, other, Feed, dose end: 90 day, group: systemic
[4] = tested on: dog; conditions: Chronic toxicity; beagle; Oral; Feed; dose end: 52 week; group: systemic; systemic / pathology microscopic / eye / [other] + systemic / pathology microscopic / eye / cataract + systemic / pathology microscopic / …
[5] = tested on: dog; conditions: Subchronic oral toxicity in nonrodent, beagle, Feed, dose end: 91 day, group: systemic
[6] = tested on: rat; conditions: Multigenerational reproductive toxicity study, other, Oral, Feed, dose end: 2 generation
[7] = tested on: mouse; conditions: Subchronic oral toxicity in rodents, cd1, Feed, dose end: 13 week, group: systemic
[8] = tested on: rat; conditions: Prenatal developmental toxicity study, wistar, Oral, Gavage/Intubation, dose end: 19 GD
[9] = tested on: rat; conditions: Subchronic oral toxicity in rodents, wistar, Feed, dose end: 90 day, group: systemic
[10] = tested on: dog; conditions: Subchronic oral toxicity in nonrodent, beagle, Capsule, dose end: 90 day, group: systemic
[11] = tested on: rat; conditions: Subchronic oral toxicity in rodents, wistar, Feed, dose end: 28 day, group: systemic
[12] = systemic / hematology / anemia / anemia - hemolytic + systemic / in life observation / body weight / body weight gain + systemic / …
[13] = systemic / pathology microscopic / liver / fatty change + systemic / pathology microscopic / liver / necrosis + systemic / pathology …
[14] = systemic / clinical chemistry / globulins / globulins
[15] = systemic / hematology / erythrocyte (rbc) count differential / erythrocyte (rbc) + systemic / hematology / hemoglobin (hgb) / hemoglobin (…
[16] = systemic / hematology / anemia / anemia - nos + systemic / hematology / erythrocyte (rbc) count differential / erythrocyte (rbc) + systemic…
[17] = group: offspring, systemic / in life observation / body weight / litter weight + developmental / offspring survival late / viability index / viability index
[18] = group: parental, systemic / clinical chemistry / alanine aminotransferase (alt/sgpt) / alanine aminotransferase (alt/sgpt)
[19] = group: parental, systemic / clinical chemistry / sorbitol dehydrogenase / sorbitol dehydrogenase + systemic / clinical chemistry / alanine aminotransferase (…
[20] = systemic / hematology / platelet / platelet
[21] = group: developmental, developmental / developmental malformation / bone / full supernumerary
[22] = group: maternal, systemic / organ weight / liver / absolute + systemic / pathology microscopic / kidney / vacuolization + systemic / pathology microscopic / …
[23] = systemic / pathology microscopic / kidney / hyaline droplet
[24] = systemic / pathology microscopic / kidney / hyaline droplet + systemic / clinical chemistry / alanine aminotransferase (alt/sgpt) / alanine …
[25] = systemic / clinical chemistry / protein / protein + systemic / in life observation / clinical signs / vomiting + systemic / organ weight / …
[26] = systemic / clinical chemistry / calcium / calcium + systemic / clinical chemistry / phosphorus / phosphorus + systemic / pathology …

In the case of `CC1(c2ccc(Oc3ccccc3)cc2)OC(=O)N(Nc2ccccc2)C1=O` (configuration not stated) [Famoxadone], the LOAEL ([1]; systemic / hematology / anemia / anemia - hemolytic + systemic / in life observation / body weight / body weight gain) is reported as 10.7 mg/kg/day, the LEL [1, 12] is reported as 10.7 mg/kg/day and the NEL [1, 12] is reported as 2.15 mg/kg/day. For the same compound, the NOAEL [1, 12] was 2.15 mg/kg/day, the LEL ([2]; systemic / organ weight / liver / absolute + systemic / organ weight / liver / relative to body weight) was 95.6 mg/kg/day and the LOAEL [2, 13] was 274 mg/kg/day. The NEL [2, 13] was 6.78 mg/kg/day, the NOAEL [2, 13] was 95.6 mg/kg/day and the LEL [3, 14] was 3.34 mg/kg/day. For the same compound, the NEL [3, 14] was under 3.34 mg/kg/day, the LOAEL [3, 15] was 13 mg/kg/day and the NOAEL [3, 15] was 3.34 mg/kg/day. For the same compound, the LEL [4] was 8.8 mg/kg/day, the LOAEL [4] was 8.8 mg/kg/day and the NEL [4] was 1.2 mg/kg/day. For the same compound, the NOAEL [4] was 1.2 mg/kg/day, the LEL [5, 16] was 1.4 mg/kg/day and the NEL [5, 16] was under 1.4 mg/kg/day. It also gave an LOAEL ([5]; systemic / pathology microscopic / eye / cataract + systemic / pathology microscopic / eye / cataract, cortical) of 10 mg/kg/day, an NOAEL ([5]; systemic / pathology microscopic / eye / cataract + systemic / pathology microscopic / eye / cataract, cortical + systemic / clinical …) of 1.3 mg/kg/day and an LOAEL ([6]; group: offspring, systemic / in life observation / body weight / litter weight) of 53.3 mg/kg/day. The LEL [6, 17] was 53.3 mg/kg/day, the NEL [6, 17] was 14.2 mg/kg/day and the NOAEL [6, 17] was 14.2 mg/kg/day. For the same compound, the LEL [6, 18] was 1.45 mg/kg/day, the NEL [6, 18] was under 1.45 mg/kg/day and the LOAEL [6, 19] was 44.7 mg/kg/day. For the same compound, the NOAEL [6, 19] was 11.3 mg/kg/day, the LEL [7, 20] was 5.89 mg/kg/day and the NEL [7, 20] was under 5.89 mg/kg/day. The NOAEL ([7]; systemic / organ weight / liver / absolute + systemic / organ weight / liver / relative to body weight + systemic / clinical chemistry / …) was 62.4 mg/kg/day and the LOAEL ([7]; systemic / organ weight / liver / absolute + systemic / organ weight / liver / relative to body weight + systemic / hematology / anemia / …) was 534 mg/kg/day.
Work on `N#CCNC(=O)c1cnccc1C(F)(F)F` [Flonicamid] yielded an LEL [8, 21] of 500 mg/kg/day, an LOAEL [8, 21] of 500 mg/kg/day and an NEL [8, 21] of 100 mg/kg/day. It also gave an NOAEL [8, 21] of 100 mg/kg/day, an LEL [8, 22] of 500 mg/kg/day and an LOAEL [8, 22] of 500 mg/kg/day. For the same compound, the NEL [8, 22] was 100 mg/kg/day, the NOAEL [8, 22] was 100 mg/kg/day and the LEL [9, 23] was 12.1 mg/kg/day. It also gave an LOAEL [9, 23] of 60 mg/kg/day, an NEL [9, 24] of 3.08 mg/kg/day and an NOAEL [9, 24] of 12.1 mg/kg/day. It also gave an LEL [10, 25] of 20 mg/kg/day, an LOAEL [10, 25] of 20 mg/kg/day and an NOAEL [10, 25] of 8 mg/kg/day. The NEL ([10]; systemic / in life observation / clinical signs / ataxia + systemic / in life observation / clinical signs / defecation (diarrhea) + …) was 8 mg/kg/day, the LEL [11, 26] was 7.47 mg/kg/day and the NEL [11, 26] was 3.61 mg/kg/day. The NOAEL [11, 26] was 7.47 mg/kg/day and the LOAEL [11, 23] was 36.5 mg/kg/day.
